# How the values were obtained:
# [1] = system: Erythropoietin secretion, Hep-3B cells; experiment: Cellular assay: EPO secretion in Hep-3B cells; type: cell-based; details: Homo sapiens, Hep3B, 100 μM compound, 24 hours, percent of EPO secretion relative to assay control compound 7-[(4-Chloro-phenyl)-(5-methyl-isoxazol-3-ylamino)-methyl]-quinolin-8-ol, read-out: Cellular % EPO Stimulation
# Experimental: Hep-3B cells (ATCC, Manassas, Va.) were plated in 96-well plates at 20,000 cells per well in 100 μl of DMEM containing 10% fetal bovine serum, 1% non-essential amino acids, 50 IU/mL of penicillin and 50 μg/mL of streptomycin (all cell culture reagents from Invitrogen, Carlsbad, Calif.). Twenty-four hours after plating, compounds were added and incubated for an additional 24 hours. All compounds were tested with final compound concentrations at 100 μM. Fifty microliters of the supernatant was then transferred to a human Hypoxia assay kit (Meso-Scale Discovery, Gaithersburg, Md.). Erythropoietin in the supernatant was detected according to the manufacturer's instructions as follows. EPO detection plates were blocked with 3% BSA in PBS overnight and 50 μl of the supernatant was incubated at room temperature in an orbital shaker for 2 h. Twenty-five microliters of 0.5 μg/ml anti-EPO detection antibody was added for 2 hours at room temperature in an orbital shaker. After 3 washes in PBS, 150 μl of 1× read buffer is added and the plate is then read on the MSD SECTOR instrument. Data was analyzed by determining the percent of EPO secretion in the presence of 100 μM compound relative to an assay control compound, 7-[(4-Chloro-phenyl)-(5-methyl-isoxazol-3-ylamino)-methyl]-quinolin-8-ol.
# PHD2181-417 = PHD2181-417 (Homo sapiens (Human), UniProt Q9GZT9); experiment: PHD enzymatic assay ([14C]-succinic acid production); type: biochemical; details: purified PHD2181-417, HIF-1α peptide substrate, 30 min pre-incubation, average of results
# Sequence of PHD2181-417 (Q9GZT9 181-417): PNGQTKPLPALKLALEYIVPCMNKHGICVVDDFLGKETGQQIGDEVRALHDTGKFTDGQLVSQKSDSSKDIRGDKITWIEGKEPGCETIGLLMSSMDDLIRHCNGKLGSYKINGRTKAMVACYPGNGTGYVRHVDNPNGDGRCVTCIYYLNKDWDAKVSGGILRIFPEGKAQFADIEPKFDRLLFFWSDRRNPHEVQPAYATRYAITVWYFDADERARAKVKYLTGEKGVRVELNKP
# Experimental: Expression and Purification of PHD2181-417
# The human PHD2 expression construct containing amino acids 181-417 of GenBank Accession ID NM_022051 was cloned into a pBAD vector (Invitrogen), incorporating both an N-terminal histidine tag and a Smt3-tag, both of which are cleaved by Ulp1. Protein production was achieved by expression in BL21 cells grown in Terrific Broth containing 100 μg/ml ampicillin. Cell cultures were inoculated at 37° C. and grown to an OD600 of 0.8. Cultures were induced with 0.1% arabinose and grown overnight at 20° C. with continuous shaking at 225 rpm. Cells were then harvested by centrifugation and stored at −80° C. Cell pellets were suspended in Buffer A (50 mM Tris-HCl pH 7.2, 100 mM NaCl, 100 mM L-arginine, 1 mM TCEP, 0.05% (w/v) NP-40, 50 mM imidazole) followed by the addition of lysozyme and benzonase. Cells were lysed by sonication and the lysate was cleared by centrifugation (15,000 rpm, 90 min, 4° C.). The protein was purified by nickel affinity chromatography using a HisTrap Crude FF column (GE Healthcare). Samples were eluted in Buffer A with a 50-200 mM imidazole gradient. Cleavage of the Smt tag with Ulp1 protease was achieved via overnight incubation with dialyzing against Buffer A. The PHD2181-417 sample was then passed over a second HisTrap Crude FF column (GE Healthcare) to remove uncleaved protein. The flow-through was then dialyzed into 50 mM MES pH 6.0, 1 mM TCEP, 5 mM NaCl for ion exchange chromatography on a HiTrap SP Cation Exchange column (GE Healthcare). The PHD2181-417 protein was eluted with a 0-0.2 M NaCl gradient. Fractions were pooled for further purification by size exclusion chromatography over a Superdex 75 Size Exclusion Column (GE Healthcare). Final protein was concentrated to 4 mg/ml and dialyzed in 10 mM PIPES pH 7.0, 100 mM NaCl, 0.5 mM TCEP.
# (10 μM, California Peptide Research Inc., Napa, Calif.), and [5-^14C]-2-oxoglutaric acid (50 mCi/mmol, Moravek Chemicals, Brea, Calif.) in reaction buffer (40 mM Tris-HCl, pH 7.5, 0.4 mg/ml catalase, 0.5 mM DTT, 1 mM ascorbate) for 10 minutes. Compounds were pre-incubated for 30 min before starting the reaction (all test compounds were dissolved at 10 mM in 100% DMSO (w/v) and were tested with final compound concentrations at 100 μM in 1% DMSO (w/v)). The reaction was stopped by addition of 50 μl of 70 mM H3PO4 and 50 μl of 500 mM NaH2PO4, pH 3.2. Detection of [^14C]-succinic acid was achieved by separating from [5-^14C]-2-oxoglutaric acid by incubating the reaction mixture with 100 μl of 0.16 M DNP prepared in 30% perchloric acid. Next, 50 μl of unlabeled 20 mM 2-oxoglutaric acid/20 mM succinic acid, serving as carrier for the radioactivity, was added to the mixture, and was allowed to proceed for 30 minutes at room temperature. The reaction was then incubated with 50 μl of 1 M 2-oxoglutaric acid for 30 additional minutes at room temperature to precipitate the excess DNP. The reaction was then centrifuged at 2800×g for 10 minutes at room temperature to separate [^14C]-succinic acid in the supernatant from the precipitated [^14C]-dinitrophenylhydrazone. Fractions of the supernatant (400 μI) were counted using a beta counter (Beckman Coulter, Fullerton, Calif.). Inhibition of PHD2181-417 activity was measured as a decrease in succinic acid production. The IC50 values were estimated by fitting the data to a three-parameter logistic function using GraphPad Prism, version 4.02 (Graph Pad Software, San Diego, Calif.).
IC50 (PHD2181-417; read-out: Enzyme pIC50 (converted)),Enzyme pIC50 (PHD2181-417),Structure (SMILES),activation at 100 µM [1]
79.4 nM,,"COCC(C)Nc1nc(-n2cc(C(=O)O)cn2)nc2cc(F)c(Oc3c(C)cccc3C)cc12 (racemic) [Example 9, (rac)-1-[6-(2,6-Dimethyl-phenoxy)-7-fluoro-4-(2-methoxy-1-methyl-ethylamino)-quinazolin-2-yl]-1H-pyrazole-4-carboxylic acid]",86%
,6.7,"O=C(O)c1cnn(-c2nc(N3CCOCC3)c3cc(OC4CCCCC4)c(Cl)cc3n2)c1 [Example 136, 1-(7-chloro-6-(cyclohexyloxy)-4-morpholinoquinazolin-2-yl)-1H-pyrazole-4-carboxylic acid]",33%
,7.1,"CN(C)c1nc(-n2cc(C(=O)O)cn2)nc2cc(F)c(OC3CCCCC3)cc12 [Example 101, 1-(7-fluoro-6-(cyclohexyloxy)-4-(dimethylamino)quinazolin-2-yl)-1H-pyrazole-4-carboxylic acid]",85%
,5.9,"CCN(CC)CCNc1nc(-n2cc(C(=O)O)cn2)nc2cc(F)c(Oc3c(C)cccc3C)cc12 [Example 10, 1-[4-(2-Diethylamino-ethylamino)-6-(2,6-dimethyl-phenoxy)-7-fluoro-quinazolin-2-yl]-1H-pyrazole-4-carboxylic acid]",13%
,6.9,"Cc1cccc(C)c1Oc1cc2c(N3CCCCC3)nc(-n3cc(C(=O)O)cn3)nc2cc1F [Example 4, 1-[6-(2,6-Dimethyl-phenoxy)-7-fluoro-4-piperidin-1-yl-quinazolin-2-yl]-1H-pyrazole-4-carboxylic acid]",17%
,7.2,"CNc1nc(-n2cc(C(=O)O)cn2)nc2cc(F)c(Oc3c(C)cccc3C)cc12 [Example 2, 1-[6-(2,6-Dimethyl-phenoxy)-7-fluoro-4-methylamino-quinazolin-2-yl]-1H-pyrazole-4-carboxylic acid]",10%
,7.3,"O=C(O)c1cnn(-c2nc(N3CCCC3)c3cc(Oc4ccc(Cl)cc4)ccc3n2)c1 [Example 61, 1-(6-(4-Chlorophenoxy)-4-(pyrrolidin-1-yl)quinazolin-2-yl)-1H-pyrazole-4-carboxylic acid]",96%
,7.2,"O=C(O)c1cnn(-c2nc(NC3CC3)c3cc(OC4CCCCC4)c(F)cc3n2)c1 [Example 105, 1-(7-fluoro-6-(cyclohexyloxy)-4-(cyclopropylamino)quinazolin-2-yl)-1H-pyrazole-4-carboxylic acid]",29%
,6.9,"O=C(O)c1cnn(-c2nc(N3CCSCC3)c3cc(C4CCCCC4)ccc3n2)c1 [Example 34, 1-(6-Cyclohexyl-4-thiomorpholinoquinazolin-2-yl)-1H-pyrazole-4-carboxylic acid]",20%
,7.1,"Cc1cccc(C)c1Oc1cc2c(NC3CCOCC3)nc(-n3cc(C(=O)O)cn3)nc2cc1F [Example 16, 1-(6-(2,6-Dimethylphenoxy)-7-fluoro-4-((tetrahydro-2H-pyran-4-yl)amino)quinazolin-2-yl)-1H-pyrazole-4-carboxylic acid]",71%
,7.0,"CC(C)c1cc2c(NC3CC3)nc(-n3cc(C(=O)O)cn3)nc2cc1Cl [Example 165, 1-(7-chloro-4-(cyclopropylamino)-6-isopropylquinazolin-2-yl)-1H-pyrazole-4-carboxylic acid]",24%
,7.1,"CCCCN(CCCC)c1nc(-n2cc(C(=O)O)cn2)nc2cc(F)c(Oc3c(C)cccc3C)cc12 [Example 11, 1-[6-(2,6-Dimethyl-phenoxy)-4-dibutylamino-7-fluoro-quinazolin-2-yl]-1H-pyrazole-4-carboxylic acid]",9%
,7.7,"CCN(CC)c1nc(-n2cc(C(=O)O)cn2)nc2cc(Oc3ccccc3)ccc12 [Example 83, 1-(4-(Diethylamino)-7-phenoxyquinazolin-2-yl)-1H-pyrazole-4-carboxylic acid]",25%
,7.4,"CCN(C)c1nc(-n2cc(C(=O)O)cn2)nc2cc(Cl)c(C(C)C)cc12 [Example 164, 1-(7-chloro-4-(ethyl(methyl)amino)-6-isopropylquinazolin-2-yl)-1H-pyrazole-4-carboxylic acid]",57%
,7.2,"CCN(C)c1nc(-n2cc(C(=O)O)cn2)nc2cc(Cl)c(OC3CCCCC3)cc12 [Example 140, 1-(7-chloro-6-(cyclohexyloxy)-4-(ethyl(methyl)amino)quinazolin-2-yl)-1H-pyrazole-4-carboxylic acid]",29%
,7.4,"CCN(CC)c1nc(-n2cc(C(=O)O)cn2)nc2ccc(-c3ccccc3)cc12 [Example 46, 1-(4-(Diethylamino)-6-phenylquinazolin-2-yl)-1H-pyrazole-4-carboxylic acid]",26%
,7.1,"Cc1cccc(C)c1Oc1cc2c(NC3CC3)nc(-n3cc(C(=O)O)cn3)nc2cc1F [Example 14, 1-((4-Cyclopropylamino)-6-(2,6-dimethylphenoxy)-7-fluoroquinazolin-2-yl)-1H-pyrazole-4-carboxylic acid]",86%
,6.4,"O=C(O)c1cnn(-c2nc(N3CCCC3)c3cc(C4CCCCC4)ccc3n2)c1 [Example 25, 1-(6-Cyclohexyl-4-(pyrrolidin-1-yl)quinazolin-2-yl)-1H-pyrazole-4-carboxylic acid]",39%
,6.8,"CCN(C)c1nc(-n2cc(C(=O)O)cn2)nc2ccc(C(C)C)cc12 [Example 189, 1-(6-isopropyl-4-(ethyl(methyl)amino)quinazolin-2-yl)-1H-pyrazole-4-carboxylic acid]",36%
,7.7,"O=C(O)c1cnn(-c2nc(Nc3ccccc3)c3cc(Oc4ccc(Cl)cc4)ccc3n2)c1 [Example 69, 1-(6-(4-Chlorophenoxy)-4-(phenylamino)quinazolin-2-yl)-1H-pyrazole-4-carboxylic acid]",23%
,5.7,"CC(C)c1ccc2nc(-n3cc(C(=O)O)cn3)nc(N3CCOCC3)c2c1 [Example 184, 1-(4-(morpholino)-6-isopropylquinazolin-2-yl)-1H-pyrazole-4-carboxylic acid]",24%

# — patent US10246442B2, “4-Aminoquinazolin compounds as prolyl hydroxylase inhibitors” (JANSSEN PHARMACEUTICA NV, priority 2011, dated 2019)
